{"source": "paper PMC9785280", "about": "“Synthesis, Antiproliferative Evaluation and QSAR Analysis of Novel Halogen- and Amidino-Substituted Benzothiazoles and Benzimidazoles” (International Journal of Molecular Sciences, 2022)", "key": {"[1]": {"test_system": "HuT78 (T-cell lymphoma) cells", "experiment": "MTT antiproliferative assay, HuT78", "format": "cell-based, human", "details": "for IC50: Homo sapiens, HuT78, 72 h, 72 h, MTT, mean ± SD of three independent experiments; for SI (MDCK) HuT78: SI = IC50 MDCK1 / IC50 HuT78", "method_in_brief": "(§1)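 GI50 values derive from least-squares fits of log concentration against percent inhibition. Each fit uses MTT absorbance (595 nm) recorded after 72 h treatment at 10^−7 to 10^−4 M, relative to untreated cells.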"}, "[2]": {"test_system": "human fibroblasts (BJ)", "experiment": "MTT antiproliferative assay, normal BJ fibroblasts", "format": "cell-based", "details": "for IC50: Homo sapiens, Fibroblast, 72 h, MTT, mean ± SD of three independent experiments, normal cells", "method_in_brief": "as §1"}, "[3]": {"test_system": "CaCo-2 (colon adenocarcinoma) cells", "experiment": "MTT antiproliferative assay, CaCo-2", "format": "cell-based, human", "details": "Homo sapiens, Caco-2; 72 h, MTT, mean ± SD of three independent experiments", "method_in_brief": "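CaCo-2 cells, plated at 2 × 10^4 cells/mL in DMEM with 10 % FBS at 37 °C/5% CO2, were treated 24 h later with five 10-fold dilutions (10^−7 to 10^−4 M) for 72 h. Viability was measured by MTT (4 h, formazan dissolved in DMSO, OD 595 nm) against background and untreated controls. GI50 came from log-concentration versus percent-inhibition fits.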"}, "[4]": {"test_system": "HuT78 cells", "experiment": "Cell cycle analysis (PI, flow cytometry)", "format": "cell-based, human", "details": "HuT78, 5 µM, 24 h, versus untreated cells", "method": "The HuT78 cells were plated in 6-well plates at a concentration of 5 × 10^5 cells per well and treated 24 h and 48 h with selected compounds 36c, 42a, 42c, 45a, 45b, 45c and 46c at a concentration of 5 μM. After drug treatment, the cells were fixed with ice-cold 70% ethanol in phosphate-buffered saline (PBS) and incubated with 0.3 μg/mL propidium iodide for 30 min at room temperature. Before being analyzed by flow cytometry (BD FACSCalibur, Becton Dickinson, San Jose, CA, SAD), samples were treated with 0.4 μg/mL RNase A for 5 min at room temperature. The resultant DNA histograms were generated and analyzed using FlowJo 7.6 software (Treestar, Inc, Ashland, OR, USA). Experiments were done in duplicate and the quantitative data are reported as average value ± standard deviation. Comparisons between control (non-treated) and treated groups were done using one-way analysis of variance (ANOVA) with Tukey–Kramer’s post hoc test with MedCalc statistical program. P-value less than 0.05 was considered statistically significant."}, "[5]": {"test_system": "MDCK1 (Madin–Darby canine kidney) cells", "experiment": "MTT antiproliferative assay, non-tumor MDCK1 cells", "format": "cell-based", "details": "Canis lupus familiaris, MDCK1, 72 h, mean ± SD of three independent experiments, normal cells", "method_in_brief": "as §1"}, "[6]": {"test_system": "THP1 (human monocytic leukemia) cells", "experiment": "MTT antiproliferative assay, THP1", "format": "cell-based", "details": "for IC50: Homo sapiens, THP-1, 72 h, MTT, mean ± SD of three independent experiments; for SI (BJ) THP1: SI = IC50 BJ / IC50 THP1; for SI (MDCK) THP1: SI = IC50 MDCK1 / IC50 THP1", "method": "(§2) The growth inhibition activity was assessed according to the slightly modified procedure performed at the National Cancer Institute, Developmental Therapeutics Program.\n(§3) Examined compounds were dissolved in DMSO (1 × 10^−2 M). The experiments were carried out on seven human tumor cell lines and two normal cell lines. The following cell lines were used: HeLa (human cervical adenocarcinoma; purchased from ATCC), CaCo-2 (human colorectal adenocarcinoma), HuT78 (T-cell lymphoma), THP-1 (acute monocytic leukemia), SW620 (colorectal adenocarcinoma, metastatic), MDA-MB-231 (human breast adenocarcinoma), HL60 (promyelocytic leukemia cell line), foreskin fibroblast cells (BJ) and MDCK1 (Madine–Darby canine kidney fibroblast like cells). MDCK1 cells were used between 24 and 26 passages.\n(§4) Adherent cells were cultured in the Dulbecco’s modified Eagle medium—DMEM (Gibco, EU) supplemented with 10 % heat-inactivated fetal bovine serum (FBS, Gibco, EU), 2 mM glutamine, and 100 U/0.1 mg penicillin/streptomycin. Cells on suspension were cultured in RPMI 1640 (Gibco, EU) medium supplemented with 10 % FBS (Gibco, EU), 2 mM glutamine, 1 mM sodium pyruvate, 10 mM HEPES. Cells were grown in humidified atmosphere under the conditions of 37 °C/5% of CO2 gas in the CO2 incubator (IGO 150 CELLlife^TM, JOUAN, Thermo Fisher Scientific, Waltham, MA, USA). A erythrosin B (Sigma-Aldrich, St. Louis, MO, USA) dye exclusion method was used to assess cell viability before plating.\n(§5) Adherent cells (HeLa, CaCo-2, MCF-7 and MDCK-1) were plated in 96-well flat bottom plates (Greiner, Frickenhausen, Austria) at a concentration of 2 × 10^4 cells/mL. Suspension cells (THP-1 and HuT78) were plated in 96-well microtiter plates (Sarstead, Newton, USA) at a concentration of 1 × 10^5 cells/mL. Twenty-four hours later, cells were treated with test agents in […] 10-fold dilutions ([…] to 10^−4 M) and incubated for further 72 h. Working dilutions were freshly prepared on the day of testing. The solvent was also tested for eventual inhibitory activity by adjusting its concentration to be the same as in working concentrations. After 72 h of incubation, the cell growth rate was evaluated by performing the MTT assay, which detects dehydrogenase activity in viable cells. For this purpose, upon completion of the incubation period, growth medium was discarded and 50 μL of MTT was added to each well at a concentration of 5 mg/mL. After four hours of incubation at 37 °C, water insoluble MTT-formazan crystals were dissolved in 150 μL of dimethyl-sulfoxide (DMSO) for adherent cells, and in 10 % SDS with 0.01 M/L HCl for cells grown in suspension. The absorbance (OD, optical density) was measured on a microplate reader (iMark, BIO RAD, Hercules, CA, USA) at 595 nm.\n(§6) Percent of life cells was calculated as follows: % = OD (sample)–OD (background)/OD (control)–OD (background) × 100.\n(§7) Optical density (OD) of background for adherent cells is the OD of MTT solution and DMSO; OD (background) for suspension cells is OD of the culture medium with MTT and 10% SDS with 0.01 M/L HCl; OD (control) is the OD of the cells growth without tested compounds.\n(§8) Calculation of GI50 value curves and QC analysis is performed by using the Excel tools and GraphPadPrism software (La Jolla, CA), v. 5.03. Briefly, individual concentration effect curves are generated by plotting the logarithm of the concentration of tested compounds(X) vs. corresponding percent inhibition values (Y) using least squares fit. The best fit GI50 values are calculated using Log (inhibitor) versus normalized response—Variable slope equation, where Y Ľ 100/(1 ţ 10 ((LogIC50 _ X) * HillSlope)). QC criteria parameters (Z0, S:B, R2, HillSlope) were checked for every GI50 curve."}, "[7]": {"test_system": "MDA-MB-231 (human breast adenocarcinoma) cells", "experiment": "MTT antiproliferative assay, MDA-MB-231", "format": "cell-based", "details": "for IC50: Homo sapiens, MDA-MB-231, 72 h, MTT, mean ± SD of three independent experiments", "method": "as §2, §3, §4, §5, §6, §7, §8"}, "[8]": {"test_system": "SW620 (colorectal adenocarcinoma, metastatic) cells", "experiment": "MTT antiproliferative assay, SW620", "format": "cell-based, human", "details": "for IC50: Homo sapiens, SW-620, 72 h, MTT, mean ± SD of three independent experiments, read-out: IC50 (µM) SW620", "method": "as §2, §3, §4, §5, §6, §7, §8"}, "[9]": {"test_system": "HL60 (promyelocytic leukemia) cells", "experiment": "MTT antiproliferative assay, HL60", "format": "cell-based, human", "details": "for IC50: Homo sapiens, HL-60, 72 h, MTT, mean ± SD of three independent experiments; for SI (BJ) HL60: SI = IC50 BJ / IC50 HL60; for SI (MDCK) HL60: SI = IC50 MDCK1 / IC50 HL60", "method": "as §2, §3, §4, §5, §6, §7, §8"}, "[10]": {"test_system": "HeLa (cervical adenocarcinoma) cells", "experiment": "MTT antiproliferative assay, HeLa", "format": "cell-based", "details": "Homo sapiens, 72 h, mean ± SD of three independent experiments", "method_in_brief": "as §1"}, "[11]": {"test_system": "MCF-7^wt cells", "set-up": "method as in PMID 23623491", "details": "estrogen receptor-positive MCF-7^wt cells ref 17,18; cited from earlier work"}}, "data": [{"smiles": "COc1cc(-c2nc3ccc(C4=NCCCN4)cc3[nH]2)ccc1OCC(=O)c1ccccc1", "note": "[42c]", "values": [{"measurement": "IC50", "setting": "[1]", "value": "24.9 ± 4.6", "unit": "µM"}, {"measurement": "SI (BJ) HuT78", "setting": "[1]; SI = IC50 BJ / IC50 HuT78", "value": 1.32}, {"measurement": "SI (MDCK) HuT78", "setting": "[1]", "value": 4.0}, {"measurement": "IC50", "setting": "[2]", "value": "32.8 ± 4.1", "unit": "µM"}, {"measurement": "IC50", "setting": "[3]", "value": "> 100", "unit": "µM"}, {"measurement": "G2/M phase cell fraction", "setting": "[4]", "value": "decrease in G2/M phase"}, {"measurement": "IC50", "setting": "[5]", "value": "> 100", "unit": "µM"}, {"measurement": "IC50", "setting": "[6]", "value": "19.7 ± 2.4", "unit": "µM"}, {"measurement": "SI (BJ) THP1", "setting": "[6]", "value": 1.68}, {"measurement": "SI (MDCK) THP1", "setting": "[6]", "value": 5.13}, {"measurement": "IC50", "setting": "[7]", "value": "38.9 ± 4.2", "unit": "µM"}, {"measurement": "SI (MDCK) MDA-MB-231", "setting": "[7]; SI = IC50 MDCK1 / IC50 MDA-MB-231", "value": 2.57}, {"measurement": "IC50", "setting": "[8]", "value": "29.8 ± 3", "unit": "µM"}, {"measurement": "SI (MDCK) SW620", "setting": "[8]; SI = IC50 MDCK1 / IC50 SW620", "value": 3.36}, {"measurement": "IC50", "setting": "[9]", "value": "19.5 ± 0.8", "unit": "µM"}, {"measurement": "SI (BJ) HL60", "setting": "[9]", "value": 1.68}, {"measurement": "SI (MDCK) HL60", "setting": "[9]", "value": 5.13}, {"measurement": "IC50", "setting": "[10]", "value": "> 100", "unit": "µM"}]}, {"smiles": "Fc1cc(-c2nc3ccc(C4=NCCCN4)cc3[nH]2)ccc1OCc1cn(Cc2ccccc2)nn1", "note": "[45b]", "values": [{"measurement": "IC50", "setting": "[1]", "value": "5.5 ± 4", "unit": "µM"}, {"measurement": "SI (MDCK) HuT78", "setting": "[1]", "value": 8.36}, {"measurement": "IC50", "setting": "[2]", "value": "82.1 ± 0.4", "unit": "µM"}, {"measurement": "IC50", "setting": "[3]", "value": "> 100", "unit": "µM"}, {"measurement": "G2/M phase cell fraction", "setting": "[4]", "value": "decrease in G2/M phase"}, {"measurement": "IC50", "setting": "[5]", "value": "46.1 ± 14.8", "unit": "µM"}, {"measurement": "IC50", "setting": "[6]", "value": "2.5 ± 1.5", "unit": "µM"}, {"measurement": "SI (BJ) THP1", "setting": "[6]", "value": 32.84}, {"measurement": "SI (MDCK) THP1", "setting": "[6]", "value": 18.44}, {"measurement": "IC50", "setting": "[7]", "value": "> 100", "unit": "µM"}, {"measurement": "IC50", "setting": "[8]", "value": "> 100", "unit": "µM"}, {"measurement": "IC50", "setting": "[9]", "value": "30 ± 12.3", "unit": "µM"}, {"measurement": "SI (BJ) HL60", "setting": "[9]", "value": 2.74}, {"measurement": "SI (MDCK) HL60", "setting": "[9]", "value": 1.54}, {"measurement": "IC50", "setting": "[10]", "value": "> 100", "unit": "µM"}]}, {"smiles": "COc1cc(-c2nc3ccc(C4=NCCCN4)cc3[nH]2)ccc1OCc1cn(Cc2ccccc2)nn1", "note": "[45c]", "values": [{"measurement": "IC50", "setting": "[1]", "value": "4.1 ± 3.3", "unit": "µM"}, {"measurement": "SI (MDCK) HuT78", "setting": "[1]", "value": 16.7}, {"measurement": "toxicity to normal BJ cells (in words)", "setting": "[2]", "value": "not toxic"}, {"measurement": "IC50", "setting": "[2]", "value": "> 100", "unit": "µM"}, {"measurement": "IC50", "setting": "[3]", "value": "> 100", "unit": "µM"}, {"measurement": "G2/M phase cell fraction", "setting": "[4]", "value": "decrease in G2/M phase"}, {"measurement": "IC50", "setting": "[5]", "value": "68.5 ± 22.7", "unit": "µM"}, {"measurement": "IC50", "setting": "[6]", "value": "> 100", "unit": "µM"}, {"measurement": "IC50", "setting": "[7]", "value": "> 100", "unit": "µM"}, {"measurement": "IC50", "setting": "[8]", "value": "> 100", "unit": "µM"}, {"measurement": "IC50", "setting": "[9]", "value": "25.1 ± 16", "unit": "µM"}, {"measurement": "SI (MDCK) HL60", "setting": "[9]", "value": 2.73}, {"measurement": "IC50", "setting": "[10]", "value": "> 100", "unit": "µM"}]}, {"smiles": "Nc1ccc(-c2nc3ccccc3s2)cc1", "note": "[CJM-126]", "values": [{"measurement": "IC50", "setting": "[11]", "value": "< 0.001", "unit": "µM"}]}]}
